According to patent US8450308B2 (Vitae Pharmaceuticals, Inc., priority 2008, dated 2013):

System: not listed separately
Assay: BACE cell assay: soluble Amyloid Beta 1-40 (Aβ 1-40) in culture media of H4-APPsw cells
Type: cell-based
Conditions: in vitro cell activity, H4-APPsw cells, secreted Aβ 1-40, overnight treatment; read-out: IC50
Procedure: H4 neuroglioma cell line that stably expresses Amyloid Precursor Protein (APP) containing the KM-NL Swedish mutation (H4-APPsw) was generated. For the assay, cells are treated overnight in the presence of inhibitor and the culture media are subjected to ELISA analysis of soluble Amyloid Beta 1-40 (Aβ 1-40).
H4 neuroglioma cell line was cultured in DMEM with 10% FBS and 1% penicillin/streptomycin (Culture Medium) at 37° C., 5% CO2. […] 24 hrs after transfection, the cells were replaced into three new plates (150 mm) in fresh Culture Medium with 250 ug/ml Zeocin. […] The levels of APPsw expression were analyzed by immunoblotting and the production of Aβ 1-40 was detected by ELISA of culture supernatants. The selected clones are maintained in Culture Medium with 250 μg/ml Zeocin and routinely split in 3-4 days to maintain 20-80% confluence.
Split cells. Split H4-APPsw cells in Culture Medium and culture overnight such that cells will be ˜80% confluent next morning.
Create Compound Dilution Plate. After determining the desired final concentration of compound to be tested, create a 500× dilution plate. Add DMSO, but not inhibitor, to each well of Column 1. […] Add compounds of interest at 500× desired final concentration to wells A3-A10. Add DMSO, but not inhibitor, to each well of Columns 11 and 12. Dilute contents of Row A 1:3 in Row B. then continue through Rows C—H.
Create Media Plate. To create a 2× solution of compound in media, add 996 μL Culture Medium to each well of a 96-well 2 ml deep well plate (Media Plate) in biosafety hood. Add 4 μL 5 mM control compound to Media Plate wells A1-D1 for determination of full inhibition.
Add media to Cell Plate. With a multichannel pipettor, mix each well of Media Plate several times to insure homogeneity. Add 100 μL of mixture to Black polymer bottom P-D-L plates. Next, place Medium Plate and Cell Plate in the incubator.
Add cells to Cell Plate. Trypsinize and count H4-APPsw cells. Dilute cells 6×10^5 cells/ml in Culture Medium and remove Cell Plate from incubator. Vortex cells to homogeneity, then using a multichannel repeating pipettor, add 100 μL cell suspension to Cell Plate, adding cells from Row H to Row A. Place Cell Plate in incubator.
Change media in Cell Plate. After 5 h, check Cell Plate by microscope to insure cells are attached. In culture hood, remove media from Cell Plate using multichannel repeating pipettor. Add 100 μl Culture Medium to each well. Remove Media Plate from incubator and mix with pipettor as previous. Add 100 μl from each well of Media Plate to corresponding well in Cell Plate. Place Cell Plate in incubator overnight.
Perform ELISA to determine levels of secreted Aβ 1-40. After 16 h incubation, spin Cell Plate for 8 min at 1200 rpm. The primary reading of Aβ 1-40 levels is done using PerkinElmer AlphaLISA technology. Follow the manufacturer's protocol for performing AlphaLISA in a white ½ area Optiwell plate using Row 12 for peptide standard (1:2 dilutions, starting at 15 ng/ml). Data are acquired using PerkinElmer Fusion-Alpha FP-HT, Alpha protocol (Count Time 0.6 s, Count Time Ratio 30%:70%).
Export data from Fusion using Columnar Report format into a separate file for each plate. Upload data into Activity Base using RIA-DOSE-RESPONSE protocol (Version 1). Data from at least eight doses were fitted to a four parameter logistical model using XLfit software to determine potency.

| Compound | IC50 [µM] |
| --- | --- |
| CN1C(=O)C2(C[C@H](C3CCCc4ccccc43)Oc3ccc(-c4cccc(C#N)c4)cc32)N=C1N (stereo in doubt) [Compound 188, 3-(2′-amino-1′-methyl-5′-oxo-2-(1,2,3,4-tetrahydronaphthalen-1-yl)-1′,5′-dihydrospiro[chroman-4,4′-imidazole]-6-yl)benzonitrile] | 0.1 to 0.5 |
| CN1OC2(CC3(CCCc4ccccc4C3)Oc3ccc(-c4cc(C#N)cc(C#N)c4)cc32)N=C1N (centres unmarked) [Compound 178] | 0.001 to 0.1 |
| CN1C(=O)C2(CC3(CCCc4ccccc4C3)Oc3ccc(-c4cccc(C#N)c4)cc32)N=C1N (centres unmarked) [Compound 179] | 0.001 to 0.1 |
| CN1OC2(CC(C3CCCc4ccccc43)Oc3ccc(-c4cc(C#N)cc(C#N)c4)cc32)N=C1N (centres unmarked) [Compound 180] | 0.1 to 0.5 |
| CN1OC2(CC3(CCCc4ccccc4C3)Oc3ccc(-c4cccnc4)cc32)N=C1N (centres unmarked) [Compound 181] | 0.001 to 0.1 |
| CN1C(=O)C2(CC(C3CCOC(C)(C)C3)Oc3ccc(-c4ccc(F)c(C#N)c4)cc32)N=C1N (centres unmarked) [Compound 182] | 0.001 to 0.1 |
| CN1C(=O)C2(CC(C3CCOC(C)(C)C3)Oc3ccc(-c4cc(Cl)cc(C#N)c4)cc32)N=C1N (centres unmarked) [Compound 183] | 0.001 to 0.1 |
| CN1C(=O)C2(CC(C3CCOC(C)(C)C3)Oc3ccc(-c4cccc(OC(F)(F)F)c4)cc32)N=C1N (centres unmarked) [Compound 184] | 0.001 to 0.1 |
| CN1C(=O)C2(CC(C3CCOC(C)(C)C3)Oc3ccc(-c4cc(C#N)cc(C#N)c4)cc32)N=C1N (centres unmarked) [Compound 185] | 0.001 to 0.1 |
| CN1OC2(CC3(CCCc4ccccc4C3)Oc3ccc(-c4cc(F)cc(C#N)c4)cc32)N=C1N (centres unmarked) [Compound 186] | 0.5 to 1 |
| CN1C(=O)[C@@]2(C[C@@H](C3CCOC(C)(C)C3)Oc3ccc(-c4ccc(F)c(Cl)c4)cc32)N=C1N (some centres unmarked) [Compound 187] | 0.001 to 0.1 |
| CN1OC2(CC3(CCCc4ccccc4C3)Oc3ccc(-c4cccc(Cl)c4)cc32)N=C1N (centres unmarked) [Compound 189] | 0.5 to 1 |
| CN1C(=O)C2(C[C@H](C3CCOC(C)(C)C3)Oc3ccc(-c4cc(F)cc(Cl)c4)cc32)N=C1N (some centres unmarked) [Compound 190] | 0.001 to 0.1 |
| CN1OC2(CC3(CCCc4ccccc4C3)Oc3ccc(-c4cc(Cl)cc(C#N)c4)cc32)N=C1N (centres unmarked) [Compound 191] | 0.1 to 0.5 |
| CN1OC2(CC3(CCCc4ccccc4C3)Oc3ccc(-c4ccc(F)c(Cl)c4)cc32)N=C1N (centres unmarked) [Compound 192] | 0.5 to 1 |
| COc1cc(Cl)cc(-c2ccc3c(c2)C2(CC(C4CCOC(C)(C)C4)O3)N=C(N)N(C)C2=O)c1 (centres unmarked) [Compound 193] | 0.001 to 0.1 |
| CN1C(=O)C2(CC(C3CCOC(C)(C)C3)Oc3ccc(-c4cc(F)cc(C#N)c4)cc32)N=C1N (centres unmarked) [Compound 194] | 0.001 to 0.1 |
| CN1C(=O)C2(CC(C3CCOC(C)(C)C3)Oc3ccc(-c4cc(F)cc(C(F)(F)F)c4)cc32)N=C1N (centres unmarked) [Compound 195] | 0.001 to 0.1 |
| CN1C(=O)C2(CC(C3CCOC(C)(C)C3)Oc3ccc(-c4cc(Cl)cc(Cl)c4)cc32)N=C1N (centres unmarked) [Compound 196] | 0.001 to 0.1 |
| CN1C(=O)C2(CC(C3CCOC(C)(C)C3)Oc3ccc(-c4cccc(Cl)c4)cc32)N=C1N (centres unmarked) [Compound 197] | 0.001 to 0.1 |
| CN1OC2(CC(C3CCCc4ccccc43)Oc3ccc(-c4cc(F)cc(C#N)c4)cc32)N=C1N (centres unmarked) [Compound 198] | 1 to 5 |
| CN1OC2(CC3(CCCc4ccccc4C3)Oc3ccc(-c4ccc(F)c(C#N)c4)cc32)N=C1N (centres unmarked) [Compound 199] | 0.1 to 0.5 |
| CN1C(=O)C2(CC(C3CCOC(C)(C)C3)Oc3ccc(-c4cccc(C(F)(F)F)c4)cc32)N=C1N (centres unmarked) [Compound 200] | 0.001 to 0.1 |
| CN1O[C@@]2(C[C@@H](C3CCCc4ccccc43)Oc3ccc(-c4ccc(F)c(C#N)c4)cc32)N=C1N (some centres unmarked) [Compound 201] | 1 to 5 |
| CN1C(=O)[C@@]2(C[C@]3(CCCOC3)Oc3ccc(-c4cc(Cl)cc(Cl)c4)cc32)N=C1N [Compound 202] | 0.001 to 0.1 |
| CN1C(=O)[C@@]2(C[C@]3(CCCOC3)Oc3ccc(-c4cc(Cl)cc(C#N)c4)cc32)N=C1N [Compound 203] | 0.001 to 0.1 |
| CN1OC2(CC(C3COCc4ccccc43)Oc3ccc(-c4cccc(C#N)c4)cc32)N=C1N (centres unmarked) [Compound 204] | 1 to 5 |

Target: T1, truncated human beta-secretase (residues 1-458, His6-tagged at the C-terminus) (Homo sapiens, UniProt P56817)
T1 construct: truncated human beta-secretase (residues 1-458, His6-tagged at the C-terminus); His6 (C); made in house; host or cells: insect cells D. melanogaster S2 (baculovirus expression system (so in the source))
Assay: BACE fluorescence quench assay
Type: biochemical
Conditions: in vitro enzyme activity, BACE fluorescence assay, pH 4.5; read-out: IC50

T1 sequence (P56817 22-458): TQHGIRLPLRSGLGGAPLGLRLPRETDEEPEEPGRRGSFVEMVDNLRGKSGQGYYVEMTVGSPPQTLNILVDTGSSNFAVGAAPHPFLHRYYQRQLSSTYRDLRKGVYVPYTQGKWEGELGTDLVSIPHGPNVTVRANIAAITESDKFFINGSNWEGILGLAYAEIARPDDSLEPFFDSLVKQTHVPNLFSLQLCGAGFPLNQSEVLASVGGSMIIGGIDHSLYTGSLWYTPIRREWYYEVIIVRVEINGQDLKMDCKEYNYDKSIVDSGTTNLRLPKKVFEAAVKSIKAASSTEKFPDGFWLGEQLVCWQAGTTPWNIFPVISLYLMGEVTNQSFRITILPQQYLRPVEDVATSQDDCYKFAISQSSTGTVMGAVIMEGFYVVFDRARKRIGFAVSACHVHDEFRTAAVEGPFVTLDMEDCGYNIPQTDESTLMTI

| Compound | IC50 [µM] |
| --- | --- |
| CC(C)=CC(CCO)C1CC2(N=C(N)N(C)O2)c2cc(-c3cccc(F)c3)ccc2O1 (centres unmarked) [Compound 436] | 5 to 10 |
| Cc1ccc(C#N)cc1-c1ccc2c(c1)[C@]1(C[C@@H](C3CCOC(C)(C)C3)O2)N=C(N)N(C)C1=O (some centres unmarked) [Compound 437] | 5 to 10 |
| CN1OC2(CC3(CCS(=O)(=O)CC3)Oc3ccc(-c4cccc(C#N)c4)cc32)N=C1N (centres unmarked) [Compound 438] | 5 to 10 |
| CN1C(=O)C2(CC3(CCCOC3)Oc3ccc(-c4cccc(-n5ccnc5)n4)cc32)N=C1N (centres unmarked) [Compound 439] | 5 to 10 |
| Cc1cccc(-c2ccc3c(c2)[C@]2(C[C@@]4(CCCOC4)O3)N=C(N)N(C)C2=O)c1C [Compound 440] | 5 to 10 |
| CC(C)=C[C@H](CCO)[C@@H]1C[C@@]2(N=C(N)N(C)O2)c2cc(-c3cc(F)cc(F)c3F)ccc2O1 [Compound 441] | 5 to 10 |
| CC(C)=CC(CCO)[C@H]1C[C@@]2(N=C(N)N(C)O2)c2cc(-c3cccc(C(F)(F)F)c3)ccc2O1 (some centres unmarked) [Compound 442] | 5 to 10 |
| CN1OC2(CC3(CCCC4CCCCC43)Oc3ccc(-c4cccc(C#N)c4)cc32)N=C1N (centres unmarked) [Compound 443] | 5 to 10 |
| CC(C)=CC(CCO)[C@@H]1C[C@@]2(N=C(N)N(C)O2)c2cc(-c3cc(F)cc(F)c3)ccc2O1 (some centres unmarked) [Compound 444] | 5 to 10 |
| CN1OC2(CC(C3CCOC(C)(C)C3)Oc3ccc(-c4cccc(-n5cccc5)n4)cc32)N=C1N (centres unmarked) [Compound 445] | 5 to 10 |
| CN1C(=O)[C@@]2(C[C@@]3(CCCOC3)Oc3ccc(-c4cccc(C#N)n4)cc32)N=C1N [Compound 446] | 5 to 10 |
| CN1C(=O)[C@@]2(C[C@@]3(CCCOC3)Oc3ccc(-c4cccc(Cl)n4)cc32)N=C1N [Compound 447] | 5 to 10 |
| CN1C(=O)[C@@]2(C[C@@]3(CCCOC3)Oc3ccc(-c4ccco4)cc32)N=C1N [Compound 448] | 10 to 50 |
| CN1C(=O)[C@@]2(C[C@@]3(CCCOC3)Oc3ccc(-c4cc(C#N)ccc4C(F)(F)F)cc32)N=C1N [Compound 449] | 10 to 50 |
| CC(C)=CC(CCO)[C@@H]1C[C@@]2(N=C(N)N(C)O2)c2cc(-c3cccc(C(F)(F)F)c3)ccc2O1 (some centres unmarked) [Compound 450] | 10 to 50 |
| CN1OC2(CC3(CCc4ccccc4CC3)Oc3ccc(-c4cccc(C#N)c4)cc32)N=C1N (centres unmarked) [Compound 451] | 10 to 50 |
| CN1C(=O)C2(CC(C3CCOC(C)(C)C3)Oc3ccc(-c4cccc(F)c4)cc32)N=C1N (centres unmarked) [Compound 452] | 10 to 50 |
| CN1C(=O)C2(C[C@H]([C@@H]3CCOC(C)(C)C3)Oc3ccc(-c4cccc(C#N)c4)cc32)N=C1N (some centres unmarked) [Compound 453] | 10 to 50 |
| CN1OC2(CC3(CCCOC3)Oc3ccc(C#Cc4ccccc4)cc32)N=C1N (centres unmarked) [Compound 454, 2″-methyl-6-(phenylethynyl)-2″H-spiro[spiro[chroman-2,1′-(3-oxacyclohexane)]-4,5′-[1,2,4]oxadiazol]-3″-amine] | 10 to 50 |
| CN1OCC2(CC3(CCCOC3)Oc3ccc(-c4cccc(C#N)c4)cc32)N=C1N (centres unmarked) [Compound 455, 3-(spiro[spiro[chroman-2,1′-(3-oxacyclohexane)]-4,5′-(3-amino-2-methyl-2,6-dihydro-[1,2,4]oxadiazine)]-6-yl)benzonitrile] | 10 to 50 |
| CC(C)=CC(CCO)C1CC2(N=C(N)N(C)O2)c2cc(-c3ccc(F)c(F)c3)ccc2O1 (centres unmarked) [Compound 456] | 10 to 50 |
| CN1C(=O)[C@@]2(C[C@@]3(CCCOC3)Oc3ccc(-c4ccc5cn[nH]c5c4)cc32)N=C1N [Compound 457] | 10 to 50 |
| COc1ccc(-c2ccc3c(c2)[C@]2(C[C@@]4(CCCOC4)O3)N=C(N)N(C)C2=O)cc1OC [Compound 458] | 10 to 50 |
